Patent US8759333B2, “Di-azetidinyl diamide as monoacylglycerol lipase inhibitors” (Janssen Pharmaceutica, NV, priority 2010, dated 2014)
Changes are numbered by the printed parent chain.

Columns and labels:
[1] = target: T1, wild type MGL (wt-MGLL 6H-11-313) (Homo sapiens, UniProt Q99685); experiment: MGL Enzyme Activity Assay, purified wild type MGL, 4MU-B substrate; type: biochemical; settings: wild type MGL 5 nM, 4MU-B 10 μM, 37° C.; read-out: MGL wild type inh IC50
T1 construct: purified wild type MGL (wt-MGLL 6H-11-313); 6H (hexahistidine) (N)
T1 sequence (Q99685 1-303): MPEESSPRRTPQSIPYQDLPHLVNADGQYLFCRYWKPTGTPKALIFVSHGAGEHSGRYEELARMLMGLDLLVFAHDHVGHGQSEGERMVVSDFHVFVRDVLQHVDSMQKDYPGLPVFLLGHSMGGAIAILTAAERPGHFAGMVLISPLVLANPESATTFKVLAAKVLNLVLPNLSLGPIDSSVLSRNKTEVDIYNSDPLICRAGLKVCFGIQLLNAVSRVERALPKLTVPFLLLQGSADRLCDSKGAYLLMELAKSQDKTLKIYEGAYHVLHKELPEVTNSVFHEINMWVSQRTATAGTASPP
Method: All rate-based assays were performed in black 384-well polypropylene PCR microplates (Abgene) in a total volume of 30 μL. […] Final compound concentrations ranged from 17 to 0.0003 μM.
(§1) The IC50 values for the following compounds were determined using Microsoft Office Excel from a fit of the equation to the concentration-response plot of the fractional activity as a function of inhibitor concentration.

MGL = target: T2, MGL (Rattus norvegicus, UniProt Q8R431); experiment: 2-AG Accumulation Assay in rat brain homogenate; type: biochemical; settings: percent of vehicle; for activity at 10 µM: compound @10 µM, read-out: Rat Brain 2AG % VehCntrl (%) @10 µM; for activity at 1 µM: compound @1 µM, read-out: Rat Brain 2AG % VehCntrl (%) @1 µM
T2 construct: one g rat brain was homogenized using a Polytron homogenizer; from tissue; host or cells: rat brain homogenate
T2 sequence (Q8R431 1-303): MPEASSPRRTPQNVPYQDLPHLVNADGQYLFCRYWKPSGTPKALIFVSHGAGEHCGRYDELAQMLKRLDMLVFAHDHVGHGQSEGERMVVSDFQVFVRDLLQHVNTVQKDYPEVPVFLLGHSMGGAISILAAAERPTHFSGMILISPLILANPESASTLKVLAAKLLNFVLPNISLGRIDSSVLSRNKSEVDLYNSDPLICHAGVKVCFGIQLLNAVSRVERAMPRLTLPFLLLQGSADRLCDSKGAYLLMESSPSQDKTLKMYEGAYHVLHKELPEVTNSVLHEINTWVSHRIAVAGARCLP

[2] = target: T3, mutant MGL (mut-MGLL 11-313 L179S L186S) (Homo sapiens, UniProt Q99685, L169S/L176S); experiment: MGL Enzyme Activity Assay, purified mutant MGL, 4MU-B substrate; type: biochemical; settings: mutant MGL 5 nM, 4MU-B 10 μM, 37° C.; read-out: MGL mutant inh IC50
T3 construct: purified mutant MGL (mut-MGLL 11-313 L179S L186S)
T3 sequence (Q99685 1-303 L169S/L176S): T1 sequence (Q99685 1-303) with L169S, L176S
Method: All rate-based assays were performed in black 384-well polypropylene PCR microplates (Abgene) in a total volume of 30 μL. Substrate 4-methylumbelliferyl butyrate (4MU-B; Sigma) and either purified mutant MGL (mut-MGLL 11-313 L179S L186S) or purified wild type MGL (wt-MGLL 6H-11-313) were diluted separately into 20 mM PIPES buffer (pH=7.0), containing 150 mM NaCl and 0.001% Tween 20. Compounds of Formula (I), including Formulas I(a), I(b), and I(c), were pre-dispensed (50 nL) into the assay plate using a Cartesian Hummingbird prior to adding 4MU-B (25 μL of 1.2× solution to a final concentration of 10 μM) followed by enzyme (5 μL of a 6× solution to a final concentration of 5 nM) to initiate the reaction. Final compound concentrations ranged from 17 to 0.0003 μM. The fluorescence change due to 4MU-B cleavage was monitored with excitation and emission wavelengths of 335 and 440 nm, respectively, and a bandwidth of 10 nm (Safire^2, Tecan) at 37° C. for 5 min.
as §1

mutant MGL = target: T4, mutant MGL (Homo sapiens, UniProt Q99685, L169S/L176S); experiment: MGL ThermoFluor Assay - Mutant; type: binding; settings: 0.07 mg/ml mutant MGL, 100 μM ANS, pH 7.0
T4 construct: purified mutant MGL (mut-MGLL 11-313 L179S L186S)
T4 sequence (Q99685 1-303 L169S/L176S): T1 sequence (Q99685 1-303) with L169S, L176S
Method: The ThermoFluor (TF) assay is a 384-well plate-based binding assay that measures thermal stability of proteins^1,2. The experiments were carried out using instruments available from Johnson & Johnson Pharmaceutical Research & Development, LLC. TF dye used in all experiments was 1,8-ANS (Invitrogen: A-47). Final TF assay conditions used for MGL studies were 0.07 mg/ml of mutant MGL, 100 μM ANS, 200 mM NaCl, 0.001% Tween-20 in 50 mM PIPES (pH=7.0).
Screening compound plates contained 100% DMSO compound solutions at a single concentration. […] Columns 12 and 24 were used as DMSO reference and contained no compound. […] Following compound dispension, protein and dye solutions were added to achieve the final assay volume of 3 μL.
Bar-coded assay plates were robotically loaded onto a thermostatically controlled PCR-type thermal block and then heated from 40 to 90° C. degrees at a ramp-rate of 1° C./min for all experiments. Fluorescence was measured by continuous illumination with UV light (Hamamatsu LC6), supplied via fiber optics and filtered through a band-pass filter (380-400 nm; >60D cutoff). Fluorescence emission of the entire 384-well plate was detected by measuring light intensity using a CCD camera (Sensys, Roper Scientific) filtered to detect 500±25 nm, resulting in simultaneous and independent readings of all 384 wells. A single image with 20-sec exposure time was collected at each temperature, and the sum of the pixel intensity in a given area of the assay plate was recorded vs temperature and fit to standard equations to yield the Tm^1. • 1.
The Kd values for certain compounds of Formula (I) were determined from a fit of the equation to the concentration-response plot of the fractional activity as a function of […]. For some experiments, quantitative NMR spectroscopy (qNMR) was used to measure concentration of the initial 100% DMSO compound solutions and, using the same fitting method, qKd values were determined.

Q: What does the source list for O=C(NC1CN(C2CN(C(=O)c3ccc(Cc4ccccc4)cc3)C2)C1)c1nccs1 [Cpd 10, N-{1′-[(4-Benzylphenyl)carbonyl]-1,3′-biazetidin-3-yl}-1,3-thiazole-2-carboxamide]?
A: IC50 [1]: 70 nM; activity at 10 µM (MGL): 659%; IC50 [2]: 15 nM

Q: For O=C(NC1CN(C2CN(C(=O)c3ccc4c(ccn4-c4ccc(F)c(F)c4)c3)C2)C1)c1cscn1 [Cpd 54, N-(1′-{[1-(3,4-Difluorophenyl)-1H-indol-5-yl]carbonyl}-1,3′-biazetidin-3-yl)-1,3-thiazole-4-carboxamide], which IC50 [1] is on record?
A: Its IC50 is 5 nM.

Q: And the activity at 1 µM (MGL)?
A: Its activity at 1 µM is 315%.

Q: Which IC50 [1] does the source give for O=C(NC1CN(C2CN(C(=O)c3ccc4c(ccn4-c4ccc(F)cc4F)c3)C2)C1)c1nccs1 [Cpd 55, N-(1′-{[1-(2,4-Difluorophenyl)-1H-indol-5-yl]carbonyl}-1,3′-biazetidin-3-yl)-1,3-thiazole-2-carboxamide] here?
A: Its IC50 is 5 nM.

Q: What about the activity at 1 µM (MGL) of the same molecule?
A: The activity at 1 µM was 353%.

Q: O=C(NC1CN(C2CN(C(=O)c3ccc4c(ccn4-c4ccc(F)c(F)c4)c3)C2)C1)c1nccs1 [Cpd 57, N-(1′-{[1-(3,4-Difluorophenyl)-1H-indol-5-yl]carbonyl}-1,3′-biazetidin-3-yl)-1,3-thiazole-2-carboxamide] was tested. Which IC50 [1] did it give?
A: The IC50 was 7 nM.

Q: And the activity at 1 µM (MGL)?
A: Its activity at 1 µM is 424%.

Q: How did the IC50 [1] turn out when O=C(NC1CN(C2CN(C(=O)c3ccc(-c4ccc(C(F)(F)F)cc4)cc3F)C2)C1)c1nccs1 [Cpd 59, N-(1′-{[3-Fluoro-4′-(trifluoromethyl)biphenyl-4-yl]carbonyl}-1,3′-biazetidin-3-yl)-1,3-thiazole-2-carboxamide] was run?
A: The IC50 was 10 nM.

Q: What about the activity at 1 µM (MGL) of the same molecule?
A: Its activity at 1 µM is 265%.

Q: With O=C(NC1CN(C2CN(C(=O)c3ccc4c(ccn4-c4ccc(F)cc4F)c3)C2)C1)c1cscn1 [Cpd 60, N-(1′-{[1-(2,4-Difluorophenyl)-1H-indol-5-yl]carbonyl}-1,3′-biazetidin-3-yl)-1,3-thiazole-4-carboxamide] as the molecule, how does the IC50 [1] read?
A: Its IC50 is 11 nM.

Q: What about the activity at 1 µM (MGL) of the same molecule?
A: The activity at 1 µM was 273%.

Q: For Cc1cn(-c2ccc(F)cc2)c2ccc(C(=O)N3CC(N4CC(NC(=O)c5nccs5)C4)C3)cc12 [Cpd 62, N-(1′-{[1-(4-Fluorophenyl)-3-methyl-1H-indol-5-yl]carbonyl}-1,3′-biazetidin-3-yl)-1,3-thiazole-2-carboxamide], which IC50 [1] is on record?
A: The IC50 was 15 nM.

Q: And the activity at 1 µM (MGL)?
A: Its activity at 1 µM is 334%.

Q: How did the IC50 [1] turn out when Cc1cc(-c2ccc(C(F)(F)F)cc2)ccc1C(=O)N1CC(N2CC(NC(=O)c3nccs3)C2)C1 [Cpd 63, N-(1′-{[3-Methyl-4′-(trifluoromethyl)biphenyl-4-yl]carbonyl}-1,3′-biazetidin-3-yl)-1,3-thiazole-2-carboxamide] was run?
A: The IC50 was 29 nM.

Q: What about the activity at 1 µM (MGL) of the same molecule?
A: Its activity at 1 µM is 185%.

Q: Which results are given for Cc1c(C(=O)N2CC(N3CC(NC(=O)c4nccs4)C3)C2)sc2cc(Br)ccc12 [Cpd 65, N-{1′-[(6-Bromo-3-methyl-1-benzothiophen-2-yl)carbonyl]-1,3′-biazetidin-3-yl}-1,3-thiazole-2-carboxamide]?
A: IC50 [1]: < 5 nM; activity at 1 µM (MGL): 324%

Q: Which results are given for Cc1c(C(=O)N2CC(N3CC(NC(=O)c4nccs4)C3)C2)sc2cc(-c3ccccc3)ccc12 [Cpd 66, N-{1′-[(3-Methyl-6-phenyl-1-benzothiophen-2-yl)carbonyl]-1,3′-biazetidin-3-yl}-1,3-thiazole-2-carboxamide]?
A: IC50 [1]: < 5 nM; activity at 1 µM (MGL): 399%

Q: Which Kd (mutant MGL) does the source give for CS(=O)(=O)c1cccc(-c2ccc(C(=O)N3CC(N4CC(N5Cc6ccccc6C5=O)C4)C3)cc2)c1 [Cpd 80, 2-(1′-{[3′-(Methylsulfonyl)biphenyl-4-yl]carbonyl}-1,3′-biazetidin-3-yl)-2,3-dihydro-1H-isoindol-1-one] here?
A: Its Kd is 192 nM.

Q: And the activity at 1 µM (MGL)?
A: Its activity at 1 µM is 166%.

Q: And the IC50 [2]?
A: The IC50 was 19 nM.

Q: What does the source list for O=C(c1cc2ccc(C(F)(F)F)cc2s1)N1CC(N2CC(N3Cc4ccccc4C3=O)C2)C1 [Cpd 81, 2-(1′-{[6-(Trifluoromethyl)-1-benzothiophen-2-yl]carbonyl}-1,3′-biazetidin-3-yl)-2,3-dihydro-1H-isoindol-1-one]?
A: Kd (mutant MGL): 16 nM; activity at 1 µM (MGL): 192%; activity at 10 µM (MGL): 409%; IC50 [2]: 19 nM

Q: O=C(c1ccc2nc(-c3ccccc3)oc2c1)N1CC(N2CC(N3Cc4ccccc4C3=O)C2)C1 [Cpd 84, 2-{1′-[(2-Phenyl-1,3-benzoxazol-6-yl)carbonyl]-1,3′-biazetidin-3-yl}-2,3-dihydro-1H-isoindol-1-one] was tested. Which Kd (mutant MGL) did it give?
A: The Kd was 60 nM.

Q: And the activity at 1 µM (MGL)?
A: The activity at 1 µM was 152%.

Q: What about the activity at 10 µM (MGL) of the same molecule?
A: The activity at 10 µM was 435%.

Q: And the IC50 [2]?
A: Its IC50 is 31 nM.

Q: O=C(c1ccc2c(ccn2-c2ccccc2)c1)N1CC(N2CC(N3Cc4ccccc4C3=O)C2)C1 [Cpd 85, 2-{1′-[(1-Phenyl-1H-indol-5-yl)carbonyl]-1,3′-biazetidin-3-yl}-2,3-dihydro-1H-isoindol-1-one] was tested. Which Kd (mutant MGL) did it give?
A: The Kd was 25 nM.

Q: What about the activity at 10 µM (MGL) of the same molecule?
A: Its activity at 10 µM is 693%.

Q: What about the IC50 [2] of the same molecule?
A: Its IC50 is 36 nM.

Q: How did the Kd (mutant MGL) turn out when O=C(c1cc2ccc(Br)cc2s1)N1CC(N2CC(N3Cc4ccccc4C3=O)C2)C1 [Cpd 87, 2-{1′-[(6-Bromo-1-benzothiophen-2-yl)carbonyl]-1,3′-biazetidin-3-yl}-2,3-dihydro-1H-isoindol-1-one] was run?
A: Its Kd is 40 nM.

Q: And the activity at 10 µM (MGL)?
A: The activity at 10 µM was 250%.

Q: What about the IC50 [2] of the same molecule?
A: The IC50 was 50 nM.

Q: What does the source list for O=C(c1sc2cc(F)ccc2c1Cl)N1CC(N2CC(N3Cc4ccccc4C3=O)C2)C1 [Cpd 100, 2-{1′-[(3-Chloro-6-fluoro-1-benzothiophen-2-yl)carbonyl]-1,3′-biazetidin-3-yl}-2,3-dihydro-1H-isoindol-1-one]?
A: Kd (mutant MGL): 47 nM; activity at 1 µM (MGL): 208%; IC50 [2]: < 5 nM

Q: How did the IC50 [1] turn out when O=C(c1ccc2c(ccn2-c2ccc(C(F)(F)F)cc2)c1)N1CC(N2CC(N3Cc4scnc4C3=O)C2)C1 [Cpd 106, 5-[1′-({1-[4-(Trifluoromethyl)phenyl]-1H-indol-5-yl}carbonyl)-1,3′-biazetidin-3-yl]-5,6-dihydro-4H-pyrrolo[3,4-d][1,3]thiazol-4-one] was run?
A: The IC50 was < 5 nM.

Q: And the activity at 1 µM (MGL)?
A: Its activity at 1 µM is 414%.
